Assay results taken from US6407265B2, “Tin polyoxaalkanecarboxylates and compositions containing them” (priority 1998, dated 2002).
≈ marks a conversion by molar mass, not a printed value.

Legend:
MCF-7 (mammary cancer) = format: cell-based, human; conditions: in vitro, MCF-7 mammary cancer cell line
Description: (§1) The ID50 inhibition doses in ng/ml of the tested compounds are given in the table as well as those for some known reference compounds.

IGROV (ovarian cancer) = format: cell-based, human; conditions: in vitro, IGROV ovarian cancer cell line
EVSA-T (mammary cancer) = format: cell-based, human; conditions: in vitro, EVSA-T mammary cancer cell line
Description: as §1

WiDr (colon carcinoma) = format: cell-based, human; conditions: in vitro, WiDr colon carcinoma cell line
[1] = system: H226 (non small cell lung cancer); format: cell-based, human; conditions: in vitro, H226 non small cell lung cancer cell line
[2] = Stability in the presence of water (117Sn NMR); format: physicochemical; conditions: CD3CD2OD solution, increasing amounts of D2O added, resonance regularly slightly shifted
Experimental: The stability in the presence of water of four compounds, 6, 8, 9 and 12, was determined.

A 498 (renal cancer) = format: cell-based, human; conditions: in vitro, A 498 renal cancer cell line
M19 MEL (melanoma) = format: cell-based, human; conditions: in vitro, M19 MEL melanoma cell line

| Compound | ID50 inhibition dose MCF-7 (MCF-7 (mammary cancer)) [µg/mL] | ID50 inhibition dose IGROV (IGROV (ovarian cancer)) [µg/mL] | ID50 inhibition dose EVSA-T (EVSA-T (mammary cancer)) [µg/mL] | ID50 inhibition dose WiDr (WiDr (colon carcinoma)) [µg/mL] | ID50 inhibition dose H226 [1] [µg/mL] | Stability in the presence of water [2] | ID50 inhibition dose A498 (A 498 (renal cancer)) [µg/mL] | ID50 inhibition dose M19 (M19 MEL (melanoma)) [µg/mL] |
| --- | --- | --- | --- | --- | --- | --- | --- | --- |
| CCC[CH2][Sn]([CH2]CCC)([CH2]CCC)[O]C(=O)c1ccc2c(c1)OCCOCCOCCOCCO2 [Compound 6, tri-n-butyltin 4,7,10,13,16-pentaoxadicyclo[13.4.0]cosa-1,3 (17),18-triene-1-carboxylate] | <0.003 | <0.003 | <0.003 | <0.003 | <0.003 | single resonance | <0.003 | <0.003 |
| COCCOCC(=O)[O][Sn]([c]1ccccc1)([c]1ccccc1)[c]1ccccc1 [Compound 8, triphenyltin 3,6-diheptanoate] | 0.013 | 0.037 | 0.012 | 0.034 | 0.033 | single resonance | 0.032 | 0.031 |
| CCC[CH2][Sn]([CH2]CCC)([CH2]CCC)[O]C(=O)COCCOC [Compound 9, tri-n-butyltin 3,6-diheptanoate] | 0.032 | 0.084 | 0.04 | 0.082 | 0.061 | single resonance | 0.153 | 0.09 |
| CCC[CH2][Sn]([CH2]CCC)([O]C(=O)COCCOC)[O]C(=O)COCCOC [Compound 10, di-n-butyltin bis(3,6-diheptanoate)] | 0.06 | 0.128 | 0.062 | 0.379 | 0.161 | – | 0.134 | 0.115 |
| N.N.[Cl][Pt][Cl] [cisplatin, reference compound] | 0.699 | 0.169 | 0.422 | 0.967 | 3.269 | – | 2.253 | 0.558 |
| COc1cccc2c1C(=O)c1c(O)c3c(c(O)c1C2=O)C[C@@](O)(C(=O)CO)C[C@@H]3O[C@H]1C[C@H](N)[C@H](O)[C@H](C)O1 [doxorubicin, reference compound] | 0.01 (≈ 0.0184 µM) | 0.06 (≈ 0.11 µM) | 0.008 (≈ 0.0147 µM) | 0.011 (≈ 0.0202 µM) | 0.199 (≈ 0.366 µM) | – | 0.09 (≈ 0.166 µM) | 0.016 (≈ 0.0294 µM) |
| CN(Cc1cnc2nc(N)nc(N)c2n1)c1ccc(C(=O)N[C@@H](CCC(=O)O)C(=O)O)cc1 [methotrexate, reference compound] | 0.018 (≈ 0.0396 µM) | 0.007 (≈ 0.0154 µM) | 0.005 (≈ 0.011 µM) | <0.003 | 2.287 (≈ 5.03 µM) | – | 0.037 (≈ 0.0814 µM) | 0.023 (≈ 0.0506 µM) |
| bis[di-n-butyl(3,6,9-trioxadecanoato)tin]oxide [Compound 15] | <0.003 | <0.003 | <0.003 | 0.003 | <0.003 | – | <0.003 | <0.003 |
| bis[di-n-butyl(3,6-dioxaheptanoato)tin]oxide [Compound 11] | <0.003 | <0.003 | <0.003 | 0.006 | 0.005 | – | <0.003 | <0.003 |
| bis{di-n-butyl-[4,7,10,13,16,19-hexaoxadicyclo[16.4.0]dicosa-1,3(20),21-triene-1-carboxylato]tin}oxide [Compound 4] | 0.036 | 0.082 | 0.046 | 0.239 | 0.073 | – | 0.126 | 0.068 |
| di-n-butyltin bis (3,6,9-trioxadecanoate) [Compound 14] | 0.086 | 0.178 | 0.066 | 0.495 | 0.28 | – | 0.145 | 0.167 |
| triphenyltin 3,6,9-trioxadecanoate [Compound 12] | 0.009 | 0.033 | 0.009 | 0.019 | 0.025 | single resonance | 0.021 | 0.024 |
